How the values were obtained:
[1] = test system: NZB/W F1 lupus-prone mice; experiment: in vivo comparison of nanolipogels and PLGA particles, survival; details: 0.625 mg MPA per kg
From the text: The efficacy of nanolipogels was compared to PLGA using both in vivo and in vitro evaluation. […] Survival time was monitored to determine and compare in vivo efficacy between particles.

[2] = test system: female NZB/W F1 mice; experiment: survival of lupus-prone mice under life-long weekly therapy; type: in vivo
Procedure: NZB/W F1 mice develop autoimmunity that resembles human lupus nephritis, with development of glomerulonephritis, anemia, and the generation of autoantibodies specific for double-stranded DNA and other self-antigens. NZB/W F1 mice were administered a life-long, single weekly intraperitoneal injection of nanoparticle therapy beginning at 18 weeks of age, before the onset of proteinuria. The single, weekly MPA dosage in nanoparticles was 0.625 mg of MP A per kg animal (mpk). Control mice received only saline buffer.
Animal studies using female NZB/W F1 mice (The Jackson Laboratory, stock #100008) were performed with the approval of the Yale University Institutional Animal Care and Use Committee. Beginning at 18 weeks of age, NZB/W F1 mice were administered a weekly intraperitoneal injection of nanoparticles or mycophenolic acid in buffer for the entirety of their life. An intraperitoneal injection was used, as opposed to intravenous tail vein injection, to prevent long-term tail vein damage from chronic injections. Mice urine was collected by bladder compression, and blood was collected via retroorbital bleed with isoflurane anesthesia. Mouse survival was continued until symptoms of cachexia (more than 5-10% body weight loss), lethargy, or poor condition warranted humane euthanization.

[3] = test system: CD4 T cells; experiment: CD4 T cell proliferation after particle incubation, wash and anti-CD3/anti-CD28 stimulation; type: cell-based; details: brief incubation, wash, 4 days stimulation
Procedure: CD4 T cells were briefly incubated with particles, washed to remove any unbound particles, and then stimulated for 4 days with anti-CD3 and anti-CD28 antibodies to promote proliferation.

`COc1c(C)c2c(c(O)c1C/C=C(\C)CCC(=O)O)C(=O)OC2` [MPA, mycophenolic acid] was tested, and the “increase of survival time of treated mice” value [1] was “not”, the effect on survival ([2]; 0.625 mpk soluble in buffer) was “no effect on extending survival” and the effect on survival ([2]; 10 mpk (16-fold) in buffer, listed as MPA administered in buffer) was “could not achieve the same therapeutic effect”. The effect on survival ([2]; 10 mpk (16-fold) in buffer, listed as free MPA) was “no improvement in survival” and the “CD4 T cell proliferation and cytokine production” value [3] was “normal proliferation and cytokine production”.

Reference: US10195144B2, “Methods of treating inflammatory and autoimmune diseases and disorders” (Yale University, priority 2012, dated 2019)
